Experimental data taken from patent US20190231793A1, “USE OF HARRINGTONINES IN THE TREATMENT OF BREAST CANCER, IN PARTICULAR TRIPLE-NEGATIVE BREAST CANCER” (priority 2016, published 2019).
Where two headings read alike, the source gives them in different places.

Tests used:
[1] = cytotoxic = toxicity for tumor cells in culture; anticancer = data obtained in clinical trials; cited from earlier work
CAL-51 [2] = experiment: Cell viability (SRB), inhibition of cell proliferation; format: cell-based
Method: (§1) Cell Lines: CAL-51 (PIK3CA mutated) and MDA-MB-157 (without apparent genomic alteration of the PI3K-AKT-mTOR axis (NF1, TP53 mutated) were cultured in DMEM+10% FCS+200 μg/ml gentamicin, in humidified atmosphere, at 5% CO 2.
(§2) Drug: commercial HHT (Sigma-Aldrich), purified by recrystallization according to Liu's technique [U.S. Pat. No. 62,073, 14 May 1987], was provided free of charge by LeukePharma (Le Mans, France). The stock solution of 20 mM HHT citrate was obtained by dissolution in citric acid (Sigma-Aldrich), in equimolar amount or by direct dissolution of the crystalline homoharringtonine salt in sterile purified water. The following dilutions of this stock solution were performed using sterile PBS buffer. All of the solutions was stored at −80° C.
(§3) Cell viability: The cells were seeded in the 96-well plates at the concentration of 5000 cells/well (3.3×10^4/ml) for the MDA-MB-lines, and at the concentration of 1000 cells/well (6.6×10 3 ml) for CAL-51. After 24 hours of rest, at the confluence of 50-60%, the cells were treated with increasing concentrations of HHT for 24 h, 48 h and 72 h. After washing twice with sterile PBS and 48 h rest, the cells were fixed with trichloroacetic acid. After the addition of […] (SRB), the absorbance was measured at 540 nm (Multiskan™ FC plate photometer, Thermo Scientific). IC50s were calculated by CompuSyn (Chou & Talalay, ComboSyn Inc., Paramus, N.J., USA).

MDA-MB-157 [3] = experiment: as above; format: cell-based
Method: as §1, §2, §3

MDA-MB-231 [4] = experiment: as above; format: cell-based; conditions: Homo sapiens; for viability at 0.05 µM / viability at 0.1 µM: read-out: viable fraction (Fv=% of viable cells)
Method: (§4) MDA-MB-468 (PTEN, RB1, SMAD4, mutated TP53, amplified EGFR/ERBB1) and MDA-MB-231 (highly metastatic, without alteration of PI3K-Akt-mTOR; KRAS, BRAF, CDKN2A, PDGFRA, (NF2, Mutated TP53) were cultured in Liebowitz's medium+10% FCS+200 μg/ml gentamycin, in a CO2-free atmosphere
as §2, §3

MDA-MB-468 [5] = experiment: as above; format: cell-based
Method: as §4, §2, §3

CAL-51 [6] = experiment: Cell cycle by flow cytometry; format: cell-based; conditions: CAL-51, 48 hours, 20 nM HHT
Method: (§5) Cell cycle and apoptosis: the number of cells in different phases of the cell cycle or in apoptosis was determined by flow cytometry using FITC Annexin V Apoptosis Detection Kit 1 (BD Biosciences) and following the manufacturer's recommendations. Briefly, 3×10^4 cells of each line were seeded in 6-well plates and, after 24 h resting, treated with increasing concentrations of HHT for 6-72 h, then washed and incubated with propidium iodide and or with FITC annexin V). The fluorescence was measured using a BD LSH II cytofluorometer (BD Biosciences).

MDA-MB-157 [7] = experiment: Cell cycle by flow cytometry; format: cell-based; conditions: MDA-MB-157, 48 hours, 50 nM HHT
Method: as §5

MDA-MB-231 [8] = experiment: Cell cycle by flow cytometry; format: cell-based; conditions: MDA-MB-231, 48 hours, 20 nM or 50 nM HHT
Method: as §5

MDA-MB-468 [9] = experiment: Cell cycle by flow cytometry; format: cell-based; conditions: MDA-MB-468, 48 hours, 20 nM or 50 nM HHT
Method: as §5

CAL-51 [10] = experiment: Apoptosis by flow cytometry (FITC Annexin V); format: cell-based; conditions: increasing concentrations, 6-72 h
Method: as §5

MDA-MB-157 [11] = experiment: Apoptosis by flow cytometry (FITC Annexin V); format: cell-based; conditions: increasing concentrations, 6-72 h
Method: as §5

MDA-MB-231 [12] = experiment: Apoptosis by flow cytometry (FITC Annexin V); format: cell-based; conditions: regardless of concentration or incubation time
Method: as §5

MDA-MB-468 [13] = experiment: Apoptosis by flow cytometry (FITC Annexin V); format: cell-based; conditions: increasing concentrations, 6-72 h
Method: as §5

Mcl-1 = experiment: Western blot, expression of apoptosis regulatory proteins; format: cell-based; conditions: 100 nM HHT; all lines analyzed except MDA-MB-231 (CAL-51, MDA-MB-468, MDA-MB-157)
Method: (§6) Western blot: 5×10^5 cells, in 10 ml of medium, were inoculated in the 100 mm Petri dishes. After 24 hours of rest, the cells were incubated with 100 nM of HHT for different times, staggered for 2 hours and 48 hours. Then, the cells were washed and lysed directly into the dishes (without trypsinization) using RIPA buffer (Pierce-ThermoScientific), containing a mixture of protease inhibitors (Sigma). The protein concentration was determined by the method of Bradford. Protein electrophoresis was performed in 12-30% polyacrylamide gels. After transfer to the PVDF membrane, the revelation was carried out by ECL Plus (Amersham).

XIAP = experiment: as above; format: cell-based; conditions: 100 nM HHT; compared with Mcl-1
Method: as §6

survivin = experiment: as above; format: cell-based; conditions: 100 nM HHT; CAL-51; same effect as for Mcl-1 (very fast and strong drop)
Method: as §6

[14] = test system: apoptosis regulatory proteins in MDA-MB-231; experiment: Western blot, expression of apoptosis regulatory proteins in line MDA-MB-231; format: cell-based; conditions: 100 nM HHT
Method: as §6

MDA-MB-231 xenograft = experiment: In vivo study on MDA-MB-231 triple negative breast tumor xenograft; design: species or system Swiss nudes immuno-depressed mice (nu/nu); conditions: 1 mg of HHT (as salt) per kg subcutaneously twice daily for 8 days; difference between day 0 and day 10; control group increased 20-30%
Method: The efficacy of homoharringtonine in vivo on xenografts of the triple-negative breast cancer line (MDA-MB-231), was performed on Swiss nudes immuno-depressed mice (nu/nu), […]. −12 weeks. The tumor was grafted in 16 animals, by injecting 5×10^6 cells of the tumor strain, subcutaneously in the dorsal region, until a tumor volume of 200-300 mm 3 was obtained. 8 mice received 1 mg of HHT (as salt) per kg subcutaneously twice daily for 8 days. The control group (7 mice) received only physiological saline in the same dosage as HHT. Mice were sacrificed 3 days after stopping treatment, recovered xenografts, and measured tumor size. The tissues were then formalin-fixed and paraffin-embedded for subsequent histological analyzes.

[15] = 24 h, 48 h, 72 h, regardless of the concentrations (p>0.05)
[16] = Homo sapiens, 24 hours, range given for 3 out of 4 lines analyzed

COC(=O)C[C@](O)(CCC(C)(C)O)C(=O)O[C@@H]1C(OC)=C[C@]23CCCN2CCc2cc4c(cc2[C@H]13)OCO4 [(1a), harringtonine]
Activity [1]: anticancer

COC(=O)CC(O)(CC(C)(C)O)C(=O)OC1C(OC)=CC23CCCN2CCc2cc4c(cc2C13)OCO4 (stereo not shown) [(1c), norharringtonine]
Activity [1]: none

COC(=O)C[C@](O)(CCC(C)C)C(=O)O[C@@H]1C(OC)=C[C@]23CCCN2CCc2cc4c(cc2[C@H]13)OCO4 [(1d), deoxyharringtonine]
Activity [1]: anticancer

COC(=O)CC(O)(CCCCC(C)(C)O)C(=O)OC1C(OC)=CC23CCCN2CCc2cc4c(cc2C13)OCO4 (stereo not shown) [(1e), bishomoharringtonine]
Activity [1]: none

COC(=O)[C@@H](O)[C@](O)(CCC(C)C)C(=O)O[C@@H]1C(OC)=C[C@]23CCCN2CCc2cc4c(cc2[C@H]13)OCO4 [(1f), isoharringtonine]
Activity [1]: none

COC(=O)C[C@](O)(CCCC(C)(C)O)C(=O)O[C@@H]1C(OC)=C[C@]23CCCN2CCc2cc4c(cc2[C@H]13)OCO4 [HHT, homoharringtonine]
effect on proliferation versus incubation time (CAL-51 [2]; [15]): independent of the incubation time
IC50 (CAL-51 [2]; [16]): 0.0159 to 0.0213 µM
effect on proliferation versus incubation time (MDA-MB-157 [3]; [15]): independent of the incubation time
IC50 (MDA-MB-157 [3]; [16]): 0.0159 to 0.0213 µM
viability at 0.05 µM (MDA-MB-231 [4]; MDA-MB-231, 24 h): 58.1 ± 14.5%
viability at 0.1 µM (MDA-MB-231 [4]; MDA-MB-231, 24 h): 41.7 ± 13.3%
viability at 0.05 µM (MDA-MB-231 [4]; MDA-MB-231, 72 h): 25.9 ± 2.4%
viability at 0.1 µM (MDA-MB-231 [4]; MDA-MB-231, 72 h): 18.7 ± 4.8%
IC50 (MDA-MB-231 [4]; MDA-MB-231, 24 hours): 0.0805 µM
effect on proliferation versus incubation time (MDA-MB-468 [5]; [15]): independent of the incubation time
IC50 (MDA-MB-468 [5]; [16]): 0.0159 to 0.0213 µM
effect on the cell cycle (CAL-51 [6]): accumulation of CAL-51 and MDA-MB-157 cells in Set GO/G1 phase
effect on the cell cycle (MDA-MB-157 [7]): accumulation of CAL-51 and MDA-MB-157 cells in Set GO/G1 phase
effect on the cell cycle (MDA-MB-231 [8]): stopped in the G2/M phase
effect on the cell cycle (MDA-MB-468 [9]): stopped in the G2/M phase
effect on apoptosis (% of cells in early and late apoptosis) (CAL-51 [10]): induces apoptosis of CAL-51, MDA-MB-468 and MDA-MB-157 cells in a concentration and time dependent manner
effect on apoptosis (% of cells in early and late apoptosis) (MDA-MB-157 [11]): induces apoptosis of CAL-51, MDA-MB-468 and MDA-MB-157 cells in a concentration and time dependent manner
effect on apoptosis (% of cells in early and late apoptosis) (MDA-MB-231 [12]): no significant apoptosis was observed
effect on apoptosis (% of cells in early and late apoptosis) (MDA-MB-468 [13]): induces apoptosis of CAL-51, MDA-MB-468 and MDA-MB-157 cells in a concentration and time dependent manner
level of Mcl-1 (Mcl-1): very fast and strong drop
reduction in the XIAP rate (XIAP): more modest and occurred later
level of survivin (survivin): same effect
level of apoptosis regulatory proteins [14]: no effect
decrease in tumor volume (MDA-MB-231 xenograft): 20 to 60%
Activity [1]: anticancer

neoharringtonine [(1g)]
Activity [1]: cytotoxic
